From article PMC11714206, “Massively Parallel Screening of Toll/Interleukin‐1 Receptor (TIR)‐Derived Peptides Reveals Multiple Toll‐Like Receptors (TLRs)‐Targeting Immunomodulatory Peptides” (Advanced Science, 2024)

Biological target: T1, MAL^TIR (Homo sapiens, UniProt P58753)
T1 construct: MAL (residues 79–221); 6xHis; made in house; host or cells: E. coli BL21 (DE3)
Experiment: T‐Surf phage library (P8 and P3) selection against MAL^TIR, four rounds, NGS read counts
Type: binding
Conditions: for P3_MAL Rank (after) / P3_MAL Rank (before): P3 library; for P8_MAL Rank (after) / P8_MAL Rank (before): P8 library; for Population: 4th round of selection against MAL TIR, share of NGS reads
Method: T‐Surf libraries were screened against the immobilized TIR domains of two major human TLR adaptor proteins, MAL^TIR and MyD88^TIR, allowing cross‐species selection of TIR‐binding motifs with 190 946 TIR‐derived peptides in a single binding assay (Scheme 1). Enriched phage pools from the fourth round of selection were analyzed using NGS after barcoding the peptide‐coding regions of the phage pools.
Phage display screening was performed by coating two wells of a 96‐well plate (Maxisorp, Thermo Fisher Scientific) with 100 µL of 5 µg mL^−1 TIR domains overnight; then, the coated wells were blocked with 200 µL of blocking buffer (0.2% BSA in PBS) and set aside for 1 h at 4 °C with gentle shaking. Next, 100 µL of the phage library was added to the wells and incubated for 1 h at room temperature (RT; 20 – 22 °C) with gentle shaking. The plate was washed four times with PBS containing 0.5% Tween‐20; the bound phages were eluted by adding 100 µL of 100 mM HCl to each well. The elute was neutralized with 10 µL of 1.0 M Tris‐HCl (pH 11.0). E. coli TG1 cells were grown to the log phase (A600 = ≈0.6), and 1 mL of the culture was incubated with 100 µL of the eluted phages for 30 min at 37 °C, with shaking at 200 rpm. Next, 1 µL of M13KO7 helper phages was added, followed by incubation for 45 min at 37 °C, with shaking. Subsequently, the cells were transferred to 25 mL of 2× yeast extract tryptone/carbenicillin/kanamycin medium and incubated overnight at 37 °C with shaking at 200 rpm. The amplified phages were precipitated with 20% PEG‐8000/2.5 M NaCl to be used for the next round of selection.
The naïve T‐Surf libraries in P8 and P3 and the enriched phage pools after four rounds were barcoded for NGS as previously described.^[ [59] ^] Briefly, 5 µL of the phage pool was used as a template for 20 cycles of a 50 µL PCR reaction using […] each of forward and reverse barcoded primers and PrimeSTAR Max DNA Polymerase. The PCR products were purified using Expin Gel SV (GeneAll). The NGS samples were quantified using qPCR, following the qPCR Quantification Protocol Guide (KAPA Library Quantification kits for Illumina Sequencing Platform), and qualified using the TapeStation High Sensitivity D1000 ScreenTape (Agilent Technologies). The indexed libraries were further sequenced by Macrogen (Seoul, Republic of Korea) using the NovaSeq platform (Illumina) with 100 bp paired‐end reads. The reads were demultiplexed by barcodes and filtered for an average Phred quality score of at least 30, followed by trimming the flanking consensus sequences using Cutadapt (version 2.3). Peptide sequence populations were analyzed according to the read counts.

[1] = 4R selection against MAL, rank after grouping
[2] = 4R selection against MAL, rank before grouping
[3] = selection against MAL, rank by count after grouping
[4] = selection against MAL, rank by count before grouping
[5] = P3_MAL pool: P3 T-Surf phage library
[6] = P3_MAL: rank by count after grouping
[7] = P3_MAL: rank by count before grouping
[8] = P8_MAL: rank by count after grouping
[9] = P8_MAL: rank by count before grouping
[10] = selection against MAL TIR, rank by count after grouping
[11] = selection against MAL TIR, rank by count before grouping
[12] = P8_MAL pool: P8 T-Surf phage library
[13] = selection against MAL, rank after grouping
[14] = selection against MAL, rank before grouping

T1 sequence (P58753 79-221): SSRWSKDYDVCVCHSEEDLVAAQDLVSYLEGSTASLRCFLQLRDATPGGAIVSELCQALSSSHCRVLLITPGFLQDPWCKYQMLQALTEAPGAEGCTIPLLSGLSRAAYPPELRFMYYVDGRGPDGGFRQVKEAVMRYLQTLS

HQARWNRPWAKLKPPT was tested, and the “P3_MAL Rank (after)” value [1] was 626 and the “P3_MAL Rank (before)” value [2] was 2895.
For DTILKKGEGIAPELLR, the “P8_MAL Rank (after)” value [1] was 659 and the “P8_MAL Rank (before)” value [2] was 1999.
FMSHLYQGLLKGLIIT was tested, and the “P3_MAL Rank (after)” value [3] was 681 and the “P3_MAL Rank (before)” value [4] was 1202.
NAFTGHLHRYLVQRGV showed a Population [5] of 0.00488%.
For VRHTFAGYLYDALHRNRI, the “Rank (after)” value [6] was 404 and the “Rank (before)” value [7] was 1703.
For RLQKWKEALHQIHSRV, the “Rank (after)” value [6] was 189 and the “Rank (before)” value [7] was 2551.
RGFLSHLRHHLQAIDH was tested, and the Population [5] was 0.00488%.
For SEFLGAAEKRAGQSDD, the “Rank (after)” value [8] was 481 and the “Rank (before)” value [9] was 2445.
For VFFWAQLKKVLRNPTR, the “P8_MAL Rank (after)” value [1] was 627 and the “P8_MAL Rank (before)” value [2] was 1563.
In the case of AFLYTFLINLPHTNNF, the “P8_MAL Rank (after)” value [1] is reported as 628 and the “P8_MAL Rank (before)” value [2] is reported as 1838.
In the case of NAFTGNLHRYLVQRGV, the “P3_MAL Rank (after)” value [10] is reported as 287 and the “P3_MAL Rank (before)” value [11] is reported as 3276.
With RGFLSHLRHHLQVKEQ the “P3_MAL Rank (after)” value [3] was 733 and the “P3_MAL Rank (before)” value [4] was 2370.
With KLFWEKFKFFRPSLSC the “P8_MAL Rank (after)” value [10] was 226 and the “P8_MAL Rank (before)” value [11] was 2709.
For WFYERLVSMVLRDTKV, the “Rank (after)” value [8] was 406 and the “Rank (before)” value [9] was 1287.
YALTGQLHRYLVQRGV was tested, and the “Rank (after)” value [6] was 151 and the “Rank (before)” value [7] was 1485.
For TFLGHLSNGLVQAGIH, the “Rank (after)” value [8] was 478 and the “Rank (before)” value [9] was 2556.
WFYGRLVSLILRDTKV was tested, and the Population [12] was 0.0034%.
With NNLFNALVSKNIRTFM the “P3_MAL Rank (after)” value [10] was 258 and the “P3_MAL Rank (before)” value [11] was 3481.
For LQNQWKLALTNVASLV, the “Rank (after)” value [6] was 459 and the “Rank (before)” value [7] was 2149.
For NLWRNALTVAANLSGW, the “P3_MAL Rank (after)” value [13] was 540 and the “P3_MAL Rank (before)” value [14] was 3318.
With SSFREDMWRRLELSQQ the “P3_MAL Rank (after)” value [1] was 658 and the “P3_MAL Rank (before)” value [2] was 3188.
In the case of LFLGESLKLLRRSDGR, the “P8_MAL Rank (after)” value [1] is reported as 652 and the “P8_MAL Rank (before)” value [2] is reported as 2150.
KIILDTAARIWGWRQA was tested, and the “P3_MAL Rank (after)” value [10] was 227 and the “P3_MAL Rank (before)” value [11] was 3704.
In the case of SSFLSHLFDALQRKQI, the “P3_MAL Rank (after)” value [10] is reported as 218 and the “P3_MAL Rank (before)” value [11] is reported as 1020.
In the case of LNWGDPYFWRKLRYAM, the “Rank (after)” value [6] is reported as 185 and the “Rank (before)” value [7] is reported as 2196.
EYRNESKFIWDIINAI was tested, and the “Rank (after)” value [8] was 386 and the “Rank (before)” value [9] was 2047.
For RGFRSHLRQHLQAKDH, the “P3_MAL Rank (after)” value [3] was 772 and the “P3_MAL Rank (before)” value [4] was 2410.
For WFYERLVSMITRDTNV, the “P8_MAL Rank (after)” value [13] was 486 and the “P8_MAL Rank (before)” value [14] was 1271.
With RGFLSHLHHALRLNKIEAF the “P3_MAL Rank (after)” value [3] was 747 and the “P3_MAL Rank (before)” value [4] was 2390.
Sequence GSFREGLWRLLELSKK has a Population [5] of 0.00639%.
For RNNFIGHQYQALYRSR, the “P8_MAL Rank (after)” value [10] was 235 and the “P8_MAL Rank (before)” value [11] was 2291.
For PEKDNGGANAFSNNIV, the “P3_MAL Rank (after)” value [10] was 200 and the “P3_MAL Rank (before)” value [11] was 2645.
For AFFWEKLRTVLGRPTM, the “Rank (after)” value [8] was 477 and the “Rank (before)” value [9] was 1713.
With YALPAICIVIWCSVA the “Rank (after)” value [6] was 138 and the “Rank (before)” value [7] was 516.
For WFYERLVSLIRRDTQV, the “Rank (after)” value [8] was 106 and the “Rank (before)” value [9] was 1220.
AFLCPQLKSVLGNPTI was tested, and the “Rank (after)” value [8] was 133 and the “Rank (before)” value [9] was 1753.
With RNNFFGHLYHALYRIG the “P8_MAL Rank (after)” value [3] was 685 and the “P8_MAL Rank (before)” value [4] was 2261.
With WFYERLVSLILRYTKE the “P8_MAL Rank (after)” value [10] was 222 and the “P8_MAL Rank (before)” value [11] was 1197.
AFLYTFLINLTHQTNF was tested, and the Population [12] was 0.0034%.
For FMSHLYQGLKNRGI, the “Rank (after)” value [6] was 165 and the “Rank (before)” value [7] was 499.
LNVESWRQALEKAGKL gave a Population [5] of 0.00338%.
In the case of LFCWESLKQLLRSDCR, the “Rank (after)” value [8] is reported as 169 and the “Rank (before)” value [9] is reported as 2151.
For KMQQWQDALYEAANLS, the “P3_MAL Rank (after)” value [3] was 691 and the “P3_MAL Rank (before)” value [4] was 3654.
WFYEPLVSQITRDTKV was tested, and the “P8_MAL Rank (after)” value [1] was 586 and the “P8_MAL Rank (before)” value [2] was 1294.
DWFREQLRPALKERLP was tested, and the “Rank (after)” value [6] was 125 and the “Rank (before)” value [7] was 787.
For NQWRNAQTAAAKLSGW, the “Rank (after)” value [6] was 152 and the “Rank (before)” value [7] was 3399.
For KSILDTEARIWAGVR, the “P3_MAL Rank (after)” value [3] was 695 and the “P3_MAL Rank (before)” value [4] was 3728.
With WFYERLVCLLLRDSKV the “Rank (after)” value [8] was 458 and the “Rank (before)” value [9] was 1279.
